Here are results for 30 compounds from ChEMBL document CHEMBL3399932, “Synthesis of new N-benzylpiperidine derivatives as cholinesterase inhibitors with β-amyloid anti-aggregation properties and beneficial effects on memory in vivo” (Bioorg Med Chem, 2015).

Series [1] addresses Acetylcholinesterase (Electrophorus electricus) (UniProt O42275). The experiment in a line: Inhibition of electric eel AChE using acetylthiocholine iodide as substrate preincubated at 10^-4 mol/L for 5 mins by Ellman method.
The target of series [2] is Cholinesterase (Equus caballus, UniProt P81908).
Chain of Cholinesterase (P81908 whole entry): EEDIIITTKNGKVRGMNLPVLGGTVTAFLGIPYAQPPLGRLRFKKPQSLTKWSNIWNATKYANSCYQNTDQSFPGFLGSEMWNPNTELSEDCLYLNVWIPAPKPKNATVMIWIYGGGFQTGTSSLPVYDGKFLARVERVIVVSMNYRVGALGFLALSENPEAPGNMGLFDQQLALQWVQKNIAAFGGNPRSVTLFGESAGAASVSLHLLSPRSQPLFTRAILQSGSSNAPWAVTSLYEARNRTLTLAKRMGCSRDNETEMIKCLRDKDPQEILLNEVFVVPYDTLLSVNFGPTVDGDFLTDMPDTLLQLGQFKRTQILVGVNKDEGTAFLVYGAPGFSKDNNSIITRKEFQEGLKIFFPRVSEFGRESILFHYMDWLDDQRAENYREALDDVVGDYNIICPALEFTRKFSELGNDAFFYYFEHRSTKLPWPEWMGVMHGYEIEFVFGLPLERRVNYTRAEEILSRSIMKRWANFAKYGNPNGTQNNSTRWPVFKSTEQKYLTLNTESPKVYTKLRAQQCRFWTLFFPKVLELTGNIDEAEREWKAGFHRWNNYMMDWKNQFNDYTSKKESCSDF
The target in series [3] is Acetylcholinesterase (Electrophorus electricus, UniProt O42275).
Chain of Acetylcholinesterase (O42275 whole entry): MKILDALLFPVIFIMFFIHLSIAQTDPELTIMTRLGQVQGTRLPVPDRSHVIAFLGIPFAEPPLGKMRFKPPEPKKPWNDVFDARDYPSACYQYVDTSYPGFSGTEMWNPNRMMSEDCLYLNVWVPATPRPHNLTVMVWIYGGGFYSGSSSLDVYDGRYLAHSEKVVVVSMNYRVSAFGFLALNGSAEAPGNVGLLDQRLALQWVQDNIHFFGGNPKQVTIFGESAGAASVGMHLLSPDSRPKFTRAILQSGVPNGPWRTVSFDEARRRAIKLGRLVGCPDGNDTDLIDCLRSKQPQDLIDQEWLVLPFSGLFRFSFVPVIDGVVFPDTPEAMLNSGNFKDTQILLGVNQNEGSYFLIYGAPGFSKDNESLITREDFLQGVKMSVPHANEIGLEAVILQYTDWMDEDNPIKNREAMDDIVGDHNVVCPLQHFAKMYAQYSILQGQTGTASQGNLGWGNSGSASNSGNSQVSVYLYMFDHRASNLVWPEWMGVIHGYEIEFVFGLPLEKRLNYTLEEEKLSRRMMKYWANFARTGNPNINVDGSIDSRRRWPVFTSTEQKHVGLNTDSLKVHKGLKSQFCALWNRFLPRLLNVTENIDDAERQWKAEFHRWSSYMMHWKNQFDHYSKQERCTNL
For series [4] the following is noted: PAMPA, 2 h.
Series [5] has as its target Cholinesterase (Equus caballus) (UniProt P81908). The experiment in a line: Inhibition of horse serum BChE using butyrylthiocholine iodide as substrate preincubated at 10^-4 mol/L for 5 mins by Ellman method.
Series [6] deals with Amyloid-beta precursor protein (Homo sapiens) (UniProt P05067). The experiment in a line: Inhibition of self-induced beta-amyloid (1 to 42) (unknown origin) aggregation by thioflavin-T assay.
Chain of Amyloid-beta precursor protein (Homo sapiens) (P05067 whole entry): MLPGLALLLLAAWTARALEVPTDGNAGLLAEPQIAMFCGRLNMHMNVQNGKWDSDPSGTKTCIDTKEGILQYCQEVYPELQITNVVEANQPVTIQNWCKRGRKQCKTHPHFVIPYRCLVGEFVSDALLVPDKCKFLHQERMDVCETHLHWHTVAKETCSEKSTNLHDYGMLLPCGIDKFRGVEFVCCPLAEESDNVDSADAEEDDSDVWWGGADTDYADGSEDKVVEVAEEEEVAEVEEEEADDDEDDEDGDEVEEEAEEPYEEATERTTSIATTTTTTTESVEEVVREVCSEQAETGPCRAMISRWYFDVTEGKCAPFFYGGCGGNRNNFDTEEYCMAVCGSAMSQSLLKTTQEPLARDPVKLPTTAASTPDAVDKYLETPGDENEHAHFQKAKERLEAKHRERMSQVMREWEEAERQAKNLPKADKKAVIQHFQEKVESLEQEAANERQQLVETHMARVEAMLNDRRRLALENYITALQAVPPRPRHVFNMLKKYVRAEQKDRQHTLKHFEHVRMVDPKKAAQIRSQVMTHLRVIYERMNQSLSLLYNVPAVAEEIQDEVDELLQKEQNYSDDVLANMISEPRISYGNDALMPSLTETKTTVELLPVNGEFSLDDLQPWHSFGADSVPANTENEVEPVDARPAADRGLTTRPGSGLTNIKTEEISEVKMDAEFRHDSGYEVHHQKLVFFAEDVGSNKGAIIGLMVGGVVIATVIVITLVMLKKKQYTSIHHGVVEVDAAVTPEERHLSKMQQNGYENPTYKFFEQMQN
For series [7], the system named is Mus musculus. The experiment in a line: Toxicity in albino Swiss CD-1 mouse assessed as decrease in impairment of motor coordination at 6 to 18 rpm at 30 to 100 mg/kg, ip administered 1 hr before test by rotarod test. Details: dose 30-100 mg/kg, route intraperitoneal. Conditions: in vivo. The series is classed as organism-based.
The test system of series [8] is Mus musculus. The experiment in a line: Sedative activity in albino Swiss CD-1 mouse assessed as decrease in spontaneous locomotor activity at 30 mg/kg, ip administered 1 hr before test measured up to 6 mins of test. The series is classed as ADME, organism-based. Details: dose 30 mg/kg, route intraperitoneal. The settings on record: in vivo.
The test system of series [9] is Mus musculus. The experiment in a line: Effect on scopolamine-induced cognitive dysfunction in albino Swiss CD-1 mouse assessed as reduction in step-through latency time during retention trial at 5 to 30 mg/kg, ip administered 1 hr before the acquisition trial measured 24 hrs after acquisition trial over 180 seconds by passive avoidance test. The series is classed as functional, organism-based.

Series [10] deals with Mus musculus. The experiment in a line: Effect on scopolamine-induced cognitive dysfunction in albino Swiss CD-1 mouse assessed as reduction in step-through latency time at 5 to 30 mg/kg, ip administered 1 hr before the acquisition trial by passive avoidance test. The series is classed as functional, organism-based.
For series [11], the system named is Mus musculus. The experiment in a line: Toxicity in albino Swiss CD-1 mouse assessed as decrease in impairment of motor coordination at 24 rpm at 30 mg/kg, ip administered 1 hr before test by rotarod test. More on the design: dose 30 mg/kg, route intraperitoneal; scale not given: the % may be the effect or the level left. Conditions: in vivo. The series is classed as organism-based.

Series [12] relates to Mus musculus. The experiment in a line: Toxicity in albino Swiss CD-1 mouse assessed as decrease in impairment of motor coordination at 24 rpm at 100 mg/kg, ip administered 1 hr before test by rotarod test. It counts as organism-based. More on the design: dose 100 mg/kg, route intraperitoneal. The settings on record: in vivo.
Series [13] has as its system Mus musculus. The experiment in a line: Sedative activity in albino Swiss CD-1 mouse assessed as decrease in spontaneous locomotor activity at 30 mg/kg, ip administered 1 hr before test measured at 18 to 30 mins of test. The series is classed as ADME, organism-based. More on the design: dose 30 mg/kg, route intraperitoneal. Conditions: in vivo.
In series [14] the target is Cholinesterase (Equus caballus) (UniProt P81908). The experiment in a line: Inhibition of horse serum BChE using butyrylthiocholine iodide as substrate preincubated at 0.5 to 1 uM for 5 mins by Lineweaver-Burk plot method.
Chain of Cholinesterase (Equus caballus) (P81908 whole entry): as the sequence (P81908 whole entry) above
The target in series [15] is Acetylcholinesterase (Electrophorus electricus) (UniProt O42275). Conditions: 5 to 10 uM.
Chain of Acetylcholinesterase (Electrophorus electricus) (O42275 24-633 limits assumed): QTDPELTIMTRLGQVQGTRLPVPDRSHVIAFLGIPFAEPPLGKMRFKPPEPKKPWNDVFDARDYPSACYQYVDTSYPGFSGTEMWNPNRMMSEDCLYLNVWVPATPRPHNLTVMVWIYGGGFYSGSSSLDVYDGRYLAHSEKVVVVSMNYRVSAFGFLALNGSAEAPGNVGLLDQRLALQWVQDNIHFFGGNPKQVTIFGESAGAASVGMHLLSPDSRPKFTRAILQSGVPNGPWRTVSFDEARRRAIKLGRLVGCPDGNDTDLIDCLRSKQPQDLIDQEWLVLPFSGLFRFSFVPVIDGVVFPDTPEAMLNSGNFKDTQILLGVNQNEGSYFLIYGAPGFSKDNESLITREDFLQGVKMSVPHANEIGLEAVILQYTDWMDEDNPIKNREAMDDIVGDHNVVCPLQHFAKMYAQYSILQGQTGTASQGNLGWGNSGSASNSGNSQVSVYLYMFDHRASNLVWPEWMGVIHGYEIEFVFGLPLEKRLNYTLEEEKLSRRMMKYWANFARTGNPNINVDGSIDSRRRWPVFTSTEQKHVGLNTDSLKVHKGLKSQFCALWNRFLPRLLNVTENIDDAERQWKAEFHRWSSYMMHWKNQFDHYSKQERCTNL

Molecules are shown by their SMILES. The source made the active and inactive calls. The rule behind the calls is not given here.

With `COc1ccc(CN2CCC(NCCCCCCn3ccc4ccccc43)CC2)cc1`, the inhibition in series [1] is under 60%. The compound further registered an IC50 in [2] of 520 nM.
Take `Fc1ccccc1CN1CCC(NCCCCCCCCn2ccc3ccccc32)CC1`: the IC50 came out at 29.6 µM in series [3] and 930 nM in series [2].
On the same counts, the results for `c1ccc(CN2CCC(NCCCCCn3ccc4ccccc43)CC2)cc1` are 0.02 µM and 1830 nM.
For `Clc1cccc(CN2CCC(NCCCCCCn3ccc4ccccc43)CC2)c1` the same measures were 53.2 µM and 830 nM.
Regarding `COc1ccc(CN2CCC(NCCCN3C(=O)c4ccccc4C3=O)CC2)cc1`, the inhibition in [1] was under 60%. In [2], the IC50 came to 26800 nM.
Turning to `O=C1c2ccccc2C(=O)N1CCCNC1CCN(Cc2ccccc2F)CC1`, the values for the IC50 in series [3] and in series [2] were 23.1 µM and 10500 nM, respectively.
Regarding `c1ccc(CN2CCC(NCCCn3ccc4ccccc43)CC2)cc1`, the inhibition in [1] is under 60%. The IC50 in series [2] came out at 2 nM.
Regarding `COc1ccc(CN2CCC(NCCCCCCCCn3ccc4ccccc43)CC2)cc1`, in series [1], the inhibition is under 60%. In series [2], this compound showed an IC50 of 340 nM.
With `O=C1c2ccccc2C(=O)N1CCCNC1CCN(Cc2cccc(Cl)c2)CC1`, the figures for the IC50 in [3] and in [2] were 68.3 µM and 4530 nM, respectively.
On the same counts, the results for `c1ccc(CN2CCC(NCCCCCCn3ccc4ccccc43)CC2)cc1` are 0.01 µM and 15300 nM.
Turning to `Oc1ccc(CN2CCC(NCCCCCCCCn3ccc4ccccc43)CC2)cc1`, in series [1], the inhibition was under 60%. Besides, the half-maximal inhibitory concentration (IC50) in [2] came out at 1330 nM.
As to `Fc1ccccc1CN1CCC(NCCCCCCn2ccc3ccccc32)CC1`, the IC50 in series [3] is 42 µM; in series [2] it was 3410 nM.
For `O=C1c2ccccc2C(=O)N1CCCCCCNC1CCN(Cc2ccccc2F)CC1`, the IC50 amounted to 85.3 µM in [3] and 4000 nM in [2].
For the compound `CC(=O)[C@H]1CC[C@H]2[C@@H]3CCC4=CC(=O)CC[C@]4(C)[C@H]3CC[C@]12C` [PROGESTERONE], the “log Pe” value in series [4] is given as -5.1.
Regarding `c1ccc(CN2CCC(NCCCCCCCCn3ccc4ccccc43)CC2)cc1`, the results for the IC50 in [3] and in series [2] were 70.1 µM and 1080 nM, respectively.
Take `O=C1c2ccccc2C(=O)N1CCCNC1CCN(Cc2ccccc2)CC1`: the results for the IC50 in series [3] and in series [2] were 8.11 µM and 51800 nM, respectively.
On to `Oc1ccc(CN2CCC(NCCCCCCn3ccc4ccccc43)CC2)cc1`, for which the inhibition in series [1] was under 60%. Moreover, the midpoint of inhibition in series [2], the IC50, lay at 1780 nM.
Regarding `COc1ccc(CN2CCC(NCCCCCCCCN3C(=O)c4ccccc4C3=O)CC2)cc1`, the results for the half-maximal inhibitory concentration (IC50) in [3] and in series [2] were 43.3 µM and 5650 nM, respectively.
With `O=C1c2ccccc2C(=O)N1CCCCCCNC1CCN(Cc2cccc(Cl)c2)CC1`, the IC50 came to 54.4 µM in [3] and 2730 nM in series [2].
On the same counts, the results for `O=C1c2ccccc2C(=O)N1CCCCCCCCNC1CCN(Cc2ccccc2)CC1` are 17.7 µM and 1980 nM.
On the same counts, the results for `O=C1c2ccccc2C(=O)N1CCCCCCCCNC1CCN(Cc2ccccc2F)CC1` are 43.4 µM and 1870 nM.
As for `Clc1cccc(CN2CCC(NCCCCCCCCn3ccc4ccccc43)CC2)c1`, the IC50 was 21.7 µM in series [3] and 750 nM in series [2].
`O=C1c2ccccc2C(=O)N1CCCCCNC1CCN(Cc2ccccc2)CC1` showed an IC50 in series [3] of 69 µM. Also, in series [5], the inhibition is under 60%.
`O=C1c2ccccc2C(=O)N1CCCCCCNC1CCN(Cc2ccc(O)cc2)CC1`: the IC50 in [3] was determined as 29.8 µM; in series [2] it was 2320 nM.
`COc1ccc(CN2CCC(NCCCCCCN3C(=O)c4ccccc4C3=O)CC2)cc1`: in [1], the inhibition is under 60%. The half-maximal inhibitory concentration (IC50) in [2] was 7390 nM.
Regarding `CC(C)NCC(O)COc1cccc2ccccc12` (stereo not drawn) [PROPRANOLOL], in series [4], the “log Pe” value is on record as -3.5.
In the case of `O=C1c2ccccc2C(=O)N1CCCCCCCCNC1CCN(Cc2cccc(Cl)c2)CC1`, the values for the inhibition in series [1] and in series [6] were under 60% and “Dose-dependent effect”, respectively. For the same compound, the Activity entry in [7] was “Non-toxic”; in series [8], “Non-toxic”; in series [11] it was 38%; in series [12], “Toxic”; in series [13], “Toxic”. Also, the outcome in series [9] and in series [10] was Active. This compound returned an IC50 in series [2] of 720 nM.
Consider `O=C1c2ccccc2C(=O)N1CCCCCCCCNC1CCN(Cc2ccc(O)cc2)CC1`, for which the values for the IC50 in [3] and in [2] were 23.5 µM and 810 nM, respectively.
On to `O=C1c2ccccc2C(=O)N1CCCNC1CCN(Cc2ccc(O)cc2)CC1`, for which the figures for the IC50 in series [3] and in series [2] were 4.52 µM and 9370 nM, respectively. Also, the inhibition entry in series [14] and in series [15] was “Active” throughout.
Turning to `O=C1c2ccccc2C(=O)N1CCCCCCNC1CCN(Cc2ccccc2)CC1`, the results for the IC50 in [3] and in series [2] were 45.4 µM and 12800 nM, respectively.
